Assay results as given in patent US10604489B2, “Compounds for the treatment of pain” (priority 2018, dated 2020).
Counter-ions that a name gives are not always drawn. Like-named read-outs stand apart in the source and are kept apart here.

Legend:
human μ opioid receptor [1] = target: T1, human μ opioid receptor (Homo sapiens (Human), UniProt P35372); assay: Alternate functional activity ([35S]GTPγS binding) assay, SPA beads; assay type: biochemical; settings: alternate assay: [35S]GTPγS 0.020 nM, CHO cell membranes with WGA PVT SPA beads
Protocol: The [^35S]GTPγS assay measures the functional properties of a compound by quantifying the level of G-protein activation following agonist binding in studies using stably transfected cells, and is considered to be a measure of the efficacy of a compound. Membranes from CHO (Chinese Hamster Ovary) cells that stably expressed one type of the cloned human opioid receptor human were used in the experiments. The assay buffer consisted of 50 mM Tris-HCl, pH 7.4, 3 mM MgCl2, 0.2 mM EGTA, 5 μM GDP, and 100 mM NaCl. CHO cell membranes stably expressing the human p opioid receptor were pre-incubated with scintillation proximity assay beads from PerkinElmer® (WGA PVT SPA) for 30 minutes, at 8 µg membrane and […] beads in a volume of 0.1 mL per reaction. In a final volume of 0.2 mL, 11 different concentrations of each test compound were incubated with the membrane-SPA bead mixture and a final concentration of 0.020 nM [35S]GTPγS for 1.5 hours with gentle shaking. Reactions were then incubated for 5 hours. Data are the mean EC50 values ±S.E.M. EC50 values (nM) for compounds 12, 16, 19, 20, 149, 151, 152, 157, 160, 161, 164-169, 172, 173, 180-197, and 199-207 are shown in Table 1.

Male Sprague-Dawley rats = assay: animal or person; assay type: in vivo, rat
μ-receptor = μ-receptor (Homo sapiens (Human), UniProt P35372); assay: Receptor binding, competitive displacement of [3H]DAMGO; settings: 0.25 nM [3H]DAMGO, CHO cell membrane protein, 60 min at 25° C.
Procedure, shortened: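 Ki derived via Cheng-Prusoff from IC50 (log-probit fit) of displacement of 0.25 nM [3H]DAMGO, 12 concentrations, from human μ-receptor in CHO cell membranes. Binding: 50 mM Tris-HCl pH 7.5, 25 °C, 60 min, 10 μM naloxone defining nonspecific, filter-bound radioactivity counted.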

human μ opioid receptor [2] = target: T1, human μ opioid receptor; assay: Functional activity ([35S]GTPγS binding); assay type: biochemical; settings: [35S]GTPγS 0.080 nM, CHO cell membranes, 60 min at 30° C., filtration
Procedure, shortened: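 Membranes from stably transfected CHO cells (7.5 μg) incubated with 12 test-compound concentrations and 0.080 nM [35S]GTPγS in 50 mM Tris-HCl pH 7.4, 3 mM MgCl2, 0.2 mM EGTA, 3 μM GDP, 100 mM NaCl, 60 min at 30° C. Nonspecific binding defined with 10 μM GTPγS; bound label collected by filtration and scintillation counting.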

[3] = sc, minimum dose at which maximal reversal of hind paw weight bearing (50±0.5%) was achieved, subcutaneous administration, rat, read-out: MEMD SC CFA

| SMILES | EC50 (human μ opioid receptor [1]) | Ki (μ-receptor) | EC50 (human μ opioid receptor [2]) | further results |
| --- | --- | --- | --- | --- |
| COC1(c2ccnc(C(N)=O)c2)C2CCCC1CN(C[C@H]1CCCCO1)C2 (stereo partly drawn) [Compound 168] | 10 to 75 nM | – | – | – |
| COC1(c2ccnc(C(N)=O)c2)C2CCCC1CN(C[C@H]1CCCO1)C2.Cl (single isomer, unassigned) [Compound 136] | – | – | – | minimal effective dose (Male Sprague-Dawley rats; [3]): 0.3 mg/kg |
| COC1(c2ccnc(C(N)=O)c2)C2CCCC1CN(C[C@@H]1C[C@H]3CC[C@@H](C1)O3)C2 (stereo partly drawn) [Compound 165] | 10 to 75 nM | – | – | – |
| COC1(c2cccc(C(N)=O)c2)C2CCCC1CN(Cc1n[nH]c3cnccc13)C2 (stereo not drawn) [Compound 191] | 10 to 75 nM | – | – | – |
| CO[C@@]12CC[C@@]3(C[C@@H]1[C@](C)(O)C(C)(C)C)[C@H]1Cc4ccc(O)c5c4[C@@]3(CCN1CC1CC1)[C@H]2O5 [Buprenorphine, reference compound] | – | – | – | MEMD SC CFA (Male Sprague-Dawley rats; rat, in vivo): 0.1 mg/kg |
| CCOC1(c2cc(Cl)cc(C(N)=O)c2)C2CCCC1CNC2 (stereo not drawn) [Compound 185] | > 75 nM | – | – | – |
| COC1(c2cccc(C(N)=O)c2)C2CCCC1CN(C[C@@H]1CCOC1)C2.Cl (single isomer, unassigned) [Compound 143] | – | – | – | minimal effective dose (Male Sprague-Dawley rats; [3]): 1 mg/kg |
| COC1(c2cccc(C(N)=O)c2)C2CCCC1CN(C1CC3CCC(C1)O3)C2 (stereo not drawn) [Compound 205] | < 10 nM | – | – | – |
| COC1(c2ccnc(C(N)=O)c2)C2CCCC1CN(C[C@H]1C[C@H]3CC[C@@H](C1)O3)C2 (stereo partly drawn) [Compound 164] | 10 to 75 nM | – | – | – |
| COC1(c2cc(F)cc(C(N)=O)c2)C2CCCC1CNC2 (stereo not drawn) [Compound 181] | 10 to 75 nM | – | – | – |
| COC1(c2cccc(C(N)=O)c2)C2CCCC1CN(CCC1CC1)C2.Cl [Compound 138, 3-((1R,5S,9r)-3-(2-cyclopropylethyl)-9-methoxy-3-azabicyclo[3.3.1]nonan-9-yl)benzamide hydrochloride] | – | < 1 nM | < 10 nM | minimal effective dose (Male Sprague-Dawley rats; [3]): 0.3 mg/kg |
| CCOC1(c2cccc(C(N)=O)c2O)C2CCCC1CNC2 (stereo not drawn) [Compound 207] | > 75 nM | – | – | – |
| COC1(c2cccc(C(N)=O)c2)C2CCCC1CN(C[C@H]1[C@@H]3COC[C@@H]31)C2.Cl (stereo partly drawn) [Compound 176] | – | < 1 nM | < 10 nM | minimal effective dose (Male Sprague-Dawley rats; [3]): 0.1 mg/kg |
| COC1(c2ccnc(C(N)=O)c2)C2CCCC1CN(C1(C)CCC1)C2 (stereo not drawn) [Compound 201] | 10 to 75 nM | – | – | – |
| NC(=O)c1cccc(C2(OCC(F)(F)F)C3CCCC2CNC3)c1 (stereo not drawn) [Compound 184] | 10 to 75 nM | – | – | – |
| COC1(c2cccc(C(N)=O)c2)C2CCCC1CN(C[C@H]1C[C@H]3CC[C@@H](C1)O3)C2 (stereo partly drawn) [Compound 166] | < 10 nM | – | – | – |
| COC1(c2cc(C(N)=O)ccc2F)C2CCCC1CN(C)C2 (stereo not drawn) [Compound 173] | 10 to 75 nM | – | – | – |
| COC1(c2ccnc(C(N)=O)c2)C2CCCC1CN(C1CC3CCC(C1)O3)C2 (stereo not drawn) [Compound 204] | 10 to 75 nM | – | – | – |
| COC1(c2ccnc(C(N)=O)c2)C2CCCC1CN([C@H](C)c1cnn[nH]1)C2 (stereo partly drawn) [Compound 206] | > 75 nM | – | – | – |
| COC1(c2ccnc(C(N)=O)c2)C2CCCC1CN(C[C@@H]1C[C@@H]3C[C@@H]3C1)C2.Cl (stereo partly drawn) [Compound 104, 4-((1R,5S,9R)-3-((1R,3s,5S)-bicyclo[3.1.0]hexan-3-ylmethyl)-9-methoxy-3-azabicyclo[3.3.1]nonan-9-yl)picolinamide hydrochloride] | – | < 1 nM | 10 to 75 nM | minimal effective dose (Male Sprague-Dawley rats; po, minimum dose at which maximal reversal of hind paw weight bearing was achieved, dosed orally, rat, read-out: MEMD SC CFA): ≤ 0.1 mg/kg |
| COC1(c2cccc(C(N)=O)c2)C2CCCC1CN(C[C@@H]1C[C@H]3CC[C@@H](C1)O3)C2 (stereo partly drawn) [Compound 167] | < 10 nM | – | – | – |

| SMILES | EC50 (human μ opioid receptor [1]) | Ki (μ-receptor) | EC50 (human μ opioid receptor [2]) | further results |
| --- | --- | --- | --- | --- |
| COC1(c2ccnc(C(N)=O)c2)C2CCCC1CN(C1CCOCC1)C2.Cl [Compound 56, 4-((1R,5S,9r)-9-methoxy-3-(tetrahydro-2H-pyran-4-yl)-3-azabicyclo[3.3.1]nonan-9-yl)picolinamide hydrochloride] | – | > 5 nM | > 75 nM | minimal effective dose (Male Sprague-Dawley rats; [3]): 3 mg/kg |
| COCCN1CC2CCCC(C1)C2(OC)c1cccc(C(N)=O)c1.Cl [Compound 128, 3-((1R,5S,9r)-9-methoxy-3-(2-methoxyethyl)-3-azabicyclo[3.3.1]nonan-9-yl)benzamide hydrochloride] | – | < 1 nM | 10 to 75 nM | minimal effective dose (Male Sprague-Dawley rats; [3]): 1 mg/kg |
| Oc1ccc2c3c1O[C@H]1[C@@H](O)CC[C@@]4(O)[C@@H](C2)N(CC2CCC2)CC[C@]314 [Nalbuphine, reference compound] | – | – | – | minimal effective dose (Male Sprague-Dawley rats; Rattus norvegicus, sc, read-out: MEMD SC CFA (mg/kg)): > 10 mg/kg |
| COC1(c2cccc(C(N)=O)c2)C2CCCC1CN(CCc1cnn[nH]1)C2.Cl [Compound 155, 3-((1R,5S,9r)-3-(2-(1H-1,2,3-triazol-4-yl)ethyl)-9-methoxy-3-azabicyclo[3.3.1]nonan-9-yl)benzamide hydrochloride] | – | < 1 nM | < 10 nM | minimal effective dose (Male Sprague-Dawley rats; [3]): 1 mg/kg |
| COC1(c2cccc(C(N)=O)c2)C2CCCC1CN([C@@H](C)c1n[nH]c3cnccc13)C2 (stereo partly drawn) [Compound 190] | < 10 nM | – | – | – |
| COC1(c2cc(C(N)=O)ccc2C)C2CCCC1CN(C)C2 (stereo not drawn) [Compound 172] | > 75 nM | – | – | – |
| COC1(c2ccnc(C(N)=O)c2)C2CCCC1CN(C[C@@H]1CCCCO1)C2 (stereo partly drawn) [Compound 169] | 10 to 75 nM | – | – | – |
| CO[C@@]1(c2ccnc(C(N)=O)c2)[C@@H]2CCC[C@H]1CN(Cc1ncc(C)[nH]1)C2.Cl [Compound 153, 4-((1R,5S,9r)-9-methoxy-3-((5-methyl-1H-imidazol-2-yl)methyl)-3-azabicyclo[3.3.1]nonan-9-yl)picolinamide hydrochloride] | – | < 1 nM | 10 to 75 nM | MEMD SC CFA (Male Sprague-Dawley rats; minimum dose at which maximal reversal of hind paw weight bearing (50±0.5%) was achieved, subcutaneous administration, rat): 1 mg/kg |
| COC1(c2ccnc(C(N)=O)c2)C2CCCC1CN(Cc1cnc[nH]1)C2.Cl [Compound 96, 4-((1R,5S,9r)-3-((1H-imidazol-5-yl)methyl)-9-methoxy-3-azabicyclo[3.3.1]nonan-9-yl)picolinamide hydrochloride] | – | < 1 nM | 10 to 75 nM | minimal effective dose (Male Sprague-Dawley rats; [3]): 1 mg/kg |
| CCOC1(c2cc(C(N)=O)ccc2F)C2CCCC1CNC2 (stereo not drawn) [Compound 186] | 10 to 75 nM | – | – | – |
| COC1(c2ccc(C(N)=O)s2)C2CCCC1CN(C)C2.Cl [Compound 48, 5-((1R,5S,9r)-9-methoxy-3-methyl-3-azabicyclo[3.3.1]nonan-9-yl)thiophene-2-carboxamide hydrochloride] | – | < 1 nM | 10 to 75 nM | minimal effective dose (Male Sprague-Dawley rats; [3]): 0.1 mg/kg |
| CCOC1(c2cc(F)cc(C(N)=O)c2)C2CCCC1CNC2 (stereo not drawn) [Compound 192] | 10 to 75 nM | – | – | – |
| COC1(c2cccc(C(N)=O)c2)C2CCCC1CN([C@H](C)c1n[nH]c3cnccc13)C2 (stereo partly drawn) [Compound 189] | 10 to 75 nM | – | – | – |
| COC1(c2cc(C(N)=O)ccc2F)C2CCCC1CN(C)C2 (stereo not drawn) [Compound 194] | 10 to 75 nM | – | – | – |
| COC1(c2ccnc(C(N)=O)c2)C2CCCC1CN(C1CC3(CCOCC3)C1)C2 [Compound 13, 4-((1R,5S,9r)-9-methoxy-3-(7-oxaspiro[3.5]nonan-2-yl)-3-azabicyclo[3.3.1]nonan-9-yl)picolinamide hydrochloride] | – | < 1 nM | < 10 nM | – |
| COC1(c2ccnc(C(N)=O)c2)C2CCCC1CN(C1(C)CC1)C2 [Compound 4, 4-((1R,5S,9r)-9-methoxy-3-(1-methylcyclopropyl)-3-azabicyclo[3.3.1]nonan-9-yl)picolinamide hydrochloride] | – | > 5 nM | > 75 nM | – |
| Cl.[2H]C([2H])([2H])N1CC2CCCC(C1)C2(OC)c1cccc(C(N)=O)c1 [Compound 54, 3-((1R,5S,9r)-9-methoxy-3-(trideuteriomethyl)-3-azabicyclo[3.3.1]nonan-9-yl)benzamide hydrochloride] | – | < 1 nM | < 10 nM | – |
| COC1(c2cccc(C(N)=O)c2)C2CCCC1CN([C@H]1C[C@H]3C[C@H]3C1)C2 (stereo partly drawn) [Compound 11, 3-((1R,5S,9r)-3-(bicyclo[3.1.0]hexan-3-yl)-9-methoxy-3-azabicyclo[3.3.1]nonan-9-yl)benzamide hydrochloride] | – | < 1 nM | < 10 nM | – |
| CCOC1(c2cc(C)cc(C(N)=O)c2)C2CCCC1CNC2 (stereo not drawn) [Compound 193] | > 75 nM | – | – | – |
| COC1(c2ccnc(C(N)=O)c2)C2CCCC1CN(C[C@H]1CCCO1)C2.Cl (single isomer, unassigned) [Compound 136, hydrochloride] | – | > 5 nM | 10 to 75 nM | – |
| COC1(c2ccnc(C(N)=O)c2)C2CCCC1CN(Cc1ncc[nH]1)C2 [Compound 99, 4-((1R,5S,9r)-3-((1H-imidazol-2-yl)methyl)-9-methoxy-3-azabicyclo[3.3.1]nonan-9-yl)picolinamide hydrochloride] | – | 1 to 5 nM | 10 to 75 nM | – |
